Measured values: US20220168430A1, “THERAPEUTIC METHODS FOR TREATING HEPATITIS B” (priority 2019, published 2022)
Read-outs that look alike come from different tables or passages of the source.

Assays:
[1] = tested on: HBV genome; assay: IC 50 of HBV siRNA duplexes (Table A); parameters: species or system Hepatitis B virus; conditions: siRNA duplex
[2] = tested on: HBV DNA; assay: Serum HBV DNA in pHBV1.3 hydrodynamic injection mouse model of HBV (Example 12); type: in vivo, NOD.CB17-Prkdc scid/J mice; HBV genotype D, serotype ayw; conditions: once daily oral from Day 0: RNA destabilizer 10 mg/kg, encapsidation inhibitor 100 mg/kg, nucleos(t)ide analog 0.4 mg/kg, group mean ± SEM, n=7 or 8, from negative control
Description: (§1) On Day −7, 10 micrograms of the plasmid pHBV1.3 (constructed based on details provided in Guidotti, L., et al., Journal of Virology, 1995, 69(10): 6158-6169) was administered to NOD.CB 17-Prkdc^scid/J mice via hydrodynamic injection (HDI; rapid 1.6 mL injection into the tail vein). […] As readouts of the anti-HBV effect of the treatments, serum HBV DNA and serum HBsAg were assessed. Serum HBV DNA concentration in mice was measured using a quantitative PCR assay following total DNA extraction using previously published primers and probe sequences (Tanaka, Y., et al., Journal of Medical Virology, 2004, 72: 223-229). Serum HBsAg concentration in mice was measured using a commercially available ELISA kit (HBsAg EIA 3.0 480 Test Kit, Bio-Rad).
(§2) Animals were treated with RNA destabilizer as follows: Starting on Day 0, a 10 mg/kg dosage of RNA destabilizer was administered orally to animals on a once-daily frequency for a total of seven doses across the duration of the study. Animals were treated with encapsidation inhibitor as follows: Starting on Day 0, a 100 mg/kg dosage of encapsidation inhibitor was administered orally to animals on a once-daily frequency for a total of seven doses across the duration of the study. Animals were treated with nucleos(t)ide analog as follows: Starting on Day 0, a 0.4 mg/kg dosage of nucleos(t)ide analog was administered orally to animals on a once-daily frequency for a total of seven doses across the duration of the study. The RNA destabilizer, the encapsidation inhibitor, and nucleos(t)ide analog were each dissolved in the same co-solvent formulation for administration and negative control animals were administered the co-solvent formulation alone. To calculate treatment-specific effects, the treated groups are compared against negative control (vehicle treated) animals.
(§3) The effect of these treatments was determined by collecting blood on Days −1 (prior to study's treatment phase), 4, and 7 and analyzing it for serum HBV DNA and HBsAg content.

[3] = tested on: HBV DNA; type: in vivo, C57BL/6 mice; HBV serotype Ayw, genotype D; conditions: group mean ± SEM, n=6
Description: (§4) Prior to treatment start, 1×10^11 viral genomes of an adeno-associated virus (AAV) vector carrying a 1.3-fold overlength copy of an HBV genome (serotype Ayw, genotype D) was administered to C57BL/6 mice via intravenous injection. Introduction of this viral vector results in the expression of HBV DNA and HBV surface antigen (HBsAg) amongst other HBV products. Serum HBV DNA levels in mice was measured using a quantitative polymerase chain reaction (QPCR) assay, HBsAg in serum and liver of mice was measured using an enzyme-linked immunosorbent assay (ELISA), and anti-HBsAg antibodies were measured using ELISA.
(§5) Treatment effects on serum HBV DNA were determined by collecting a small amount of blood on Days 0 (pre-treatment) and 14, as well as from terminal blood collections at Day 42. Treatment effects on HBsAg in serum and liver were determined from terminal sample collections at Day 42.
(§6) Any individual animal samples measured to fall below assay lower limit of quantitation (LLOQ) were reported as the LLOQ value.

[4] = tested on: HBsAg; assay: Liver HBsAg by ELISA in AAV-HBV mouse model (Example 18); type: in vivo, C57BL/6 mice; HBV serotype Ayw, genotype D; conditions: Study Day 42; siRNA 3 mg/kg s.c. Days 0 and 28, encapsidation inhibitor 100 mg/kg and/or TDF 1 mg/kg oral daily Days 0-41; group mean ± SEM, n=6
Description: as §4, §5, §6

[5] = tested on: HBsAg; assay: Serum HBsAg in pHBV1.3 hydrodynamic injection mouse model of HBV (Example 12); type: in vivo, NOD.CB17-Prkdc scid/J mice; HBV genotype D, serotype ayw; conditions: for Serum HBsAg log reduction: once daily oral from Day 0: RNA destabilizer 10 mg/kg, encapsidation inhibitor 100 mg/kg, nucleos(t)ide analog 0.4 mg/kg, group mean ± SEM, n=7 or 8, from negative control
Description: as §1, §2, §3

Molecule	IC50 [1] [pM]	Serum HBV DNA log reduction ([2]; Day 4) [log]	Serum HBV DNA log reduction ([2]; Day 7) [log]	Serum HBV DNA ([3]; Day 0 (pre-treatment)) [log10 copies/microliter]	Serum HBV DNA ([3]; Day 14, siRNA 3 mg/kg s.c. Days 0 and 28, encapsidation inhibitor 100 mg/kg and/or TDF 1 mg/kg oral daily) [log10 copies/microliter]	Serum HBV DNA ([3]; Day 42, siRNA 3 mg/kg s.c. Days 0 and 28, encapsidation inhibitor 100 mg/kg and/or TDF 1 mg/kg oral daily Days 0-41) [log10 copies/microliter]	Liver HBsAg [4] [log10 IU/mg liver protein]	Serum HBsAg log reduction ([5]; Day 4) [log]	Serum HBsAg log reduction ([5]; Day 7) [log]	effect on viral protein production (serum HBsAg biomarker) ([5]; mouse, once-daily oral, seven doses)
13m: "double stranded siRNA molecules selected from the group consisting of 1m, 2m, 3m ... 15m" (sense GCCGAUCCAUACUGCGGAAUU; antisense UUCGGCUAGGUAUGACGCCUU; chemistry not fully specified; one strand is listed 3' to 5') [Compound 13m]	200	–	–	–	–	–	–	–	–	–
14m: "double stranded siRNA molecules selected from the group consisting of 1m, 2m, 3m ... 15m" (sense GCUCAGUUUACUAGUGCCAUU; antisense UUCGAGUCAAAUGAUCACGGU; chemistry not fully specified; one strand is listed 3' to 5') [Compound 14m]	160	–	–	–	–	–	–	–	–	–
Cn1cnc(COC(=O)N[C@H]2CCc3c(C(=O)Nc4ccc(F)c(Cl)c4)ccc(F)c32)n1 [Encapsidation Inhibitor]	–	0.94 ± 0.07	0.86 ± 0.12	4.45 ± 0.13	3.89 ± 0.07	4.49 ± 0.07	2.03 ± 0.03	−0.12 ± 0.03	0.07 ± 0.04	–
COCCCOc1cc2c(nc1OC)-c1cc(=O)c(C(=O)O)cn1[C@H](C(C)C)C2 [RNA destabilizer]	–	0.48 ± 0.11	0.48 ± 0.10	–	–	–	–	0.75 ± 0.03	0.86 ± 0.04	reductive effect on viral protein production
